Where two headings read alike, the source gives them in different places.
Experiments:
MYB mRNA = assay: RT-qPCR splicing assay, MYB mRNA canonical (CJ) and alternative (AJ) junction; assay type: cell-based, human; conditions: Homo sapiens; for AC50: MYB alternative junction mRNA, read-out: MYB AJ (increase in AJ mRNA, AC50)
Procedure: (§1) Compounds described herein were used to modulate RNA transcript abundance in cells. The expression of a target mRNA was measured by detecting the formation of an exon-exon junction in the canonical transcript (CJ). A compound mediated exon-inclusion event was detected by observing an increase in formation of a new junction with an alternative exon (AJ). Real-time qPCR assays were used to detect these splicing switches and interrogate the potency of various compounds towards different target genes. A high-throughput real time quantitative PCR (RT-qPCR) assay was developed to measure these two isoforms of the mRNA (CJ and AJ) for exemplary genes, such as HTT, SMN2, and MYB, together with a control housekeeping gene, GAPDH or GUSB or PPIA, used for normalization. Briefly, the A673 or K562 cell line was treated with various compounds described herein (e.g., compounds of Formula (I)). After treatment, the levels of the HTT, MYB, or SMN2 mRNA targets were determined from each sample of cell lysate by cDNA synthesis followed by qPCR.
(§2) The A673 cell line was cultured in DMEM with 10% FBS. Cells were diluted with full growth media and plated in a 96-well plate (15,000 cells in 100 ul media per well). The plate was incubated at 37° C. with 5% CO2 for 24 hours to allow cells to adhere. An 11-point 3-fold serial dilution of the compounds was made in DMSO then diluted in media in an intermediate plate. Compounds were transferred from the intermediate plate to the cell plate with the top dose at a final concentration of 10 uM in the well. Final DMSO concentration was kept at or below 0.25%. The cell plate was returned to the incubator at 37° C. with 5% CO2 for an additional 24 hours.
(§3) The K562 cell line was cultured in IMDM with 10% FBS. For K562, cells were diluted with full growth media and plated in either a 96-well plate (50,000 cells in 50 uL media per well) or a 384-well plate (8,000-40,000 cells in 45 uL media per well). An 11-point 3-fold serial dilution of the compounds were made in DMSO then diluted in media in an intermediate plate. Compound was transferred from the intermediate plate to the cell plate with the top dose at a final concentration of 10 uM in the well. Final DMSO concentration was kept at or below 0.25%. Final volume was 100 uL for 96-well plate and 50 uL for 384-well plate. The cell plate was then placed in an incubator at 37° C. with 5% CO2 for 24 hours.
(§4) The cells were then gently washed with 50 uL-100 uL cold PBS before proceeding to addition of lysis buffer. 30 uL-50 μL of room temperature lysis buffer with DNAse I (and optionally RNAsin) was added to each well. Cells were shaken/mixed thoroughly at room temperature for 5-10 minutes for lysis to take place and then 3 uL-5 μL of room temperature stop solution was added and wells were shaken/mixed again. After 2-5 minutes, the cell lysate plate was transferred to ice for RT-qPCR reaction setup. The lysates could also be frozen at −80° C. for later use.
(§5) In some cases, a direct lysis buffer was used. An appropriate volume of 3× lysis buffer (10 mM Tris, 150 mM NaCl, 1.5%-2.5% Igepal and 0.1-1 U/uL RNAsin, pH 7.4) was directly added to either K562 or A673 cells in media and mixed by pipetting 3 times. The plates were then incubated at room temperature with shaking/rocking for 20-50 minutes to allow for lysis to take place. After this time, the cell lysate plate was transferred to ice to set up for the RT-qPCR reactions. The lysates could also be frozen at −80° C. for later use.
(§6) To set up 10 uL RT-qPCR reactions, cell lysates were transferred to 384-well qPCR plates containing the master mix according to the table below. The plates were sealed, gently vortexed, and spun down before the run. The volumes were adjusted accordingly in some instances where the reaction was carried in 20 μL. The table below summarizes the components of the RT-qPCR reactions:
(§7) The RT-qPCR reaction was performed using a QuantStudio (ThermoFisher) under the following fast cycling conditions. […]

HTT = assay: HiBiT protein abundance assay, HTT (K562 HiBiT knock-in); assay type: cell-based, human; conditions: HiBiT knock-in K562 cells, 24 hours, top dose 10 μM
Procedure: (§8) Compounds described herein were used to screen for effects on quantitative protein abundance using a HiBit assay system (Promega). Quantitative protein abundance was determined by measuring the protein levels of HiBit-tagged protein targets expressed in cell culture via luminescence using the Nano-Glo HiBiT Lytic Detection System, which uses a split complementation assay format to reconstitute NanoBiT enzyme to generate a luminescent signal. A protein abundance assay was developed such that endogenous protein targets could be modified with the HiBiT peptide tag and their abundance could be assessed after compound treatment. Briefly, K562 cell lines containing a HiBiT-modification were treated with various compounds described herein (e.g., compounds of Formulas (I), or (II)). After treatment for 24 hours, the protein abundance of a specific target was determined by measuring luminescence.
(§9) Cells were maintained in IMIDM with 10% FBS. Before the assay, cells were diluted with […] growth media (IMIDM+[…] media) and were seeded in a 384-well plate at a density of 10000 cells/well (for each cell line listed in Table 6). Each compound was prepared as a 10-point 3-fold serial dilution in DMSO with the top dose at a final concentration of 10 μM in the well. Unmodified K562 cells were added at the previously specified density with DMSO to serve as an assay baseline and positive control (PC) and DMSO only with the respective modified cell lines was added to the negative control (NC) columns. Final DMSO concentration was kept at or below 0.25%. Treated cell plates were placed in an incubator at 37° C. with […] for 24 hours. After 24 hours, 25 μL of Complete HiBit Lytic reagent was added to each well at room temperature (e.g. one plate requiring 10 mL Lytic Buffer, 100 μL LgBiT Protein, 200 μL Lytic Substrate), shaken for 5 minutes at 600 RPM, then left to sit for 10 minutes for signal to stabilize before reading on a Spark Cyto plate reader (Tecan) with a 500 ms measurement time.
(§10) To determine compound effects on protein abundance of each target in Table 6, the percent response for each respective cell line was calculated at each compound concentration as follows:
(§11) % response=100*(S−PC)(NC−PC)
(§12) For the normalized response at each concentration, a four-parameter logistical regression was fit to the data and the response was interpolated at the […] to determine a concentration for protein abundance at 50% (IC50) the untreated control.

Target C = assay: HiBiT protein abundance assay, Target C (K562 HiBiT knock-in); assay type: cell-based, human; conditions: HiBiT knock-in K562 cells, 24 hours, top dose 10 μM
Procedure: as §9, §10, §11, §12

HTT mRNA = assay: RT-qPCR splicing assay, HTT mRNA canonical (CJ) and alternative (AJ) junction; assay type: cell-based, human; conditions: Homo sapiens; for AC50: HTT alternative junction mRNA, read-out: HTT AJ (increase in AJ mRNA, AC50)
Procedure: as §1, §2, §3, §4, §5, §6, §7

MYB = assay: HiBiT protein abundance assay, MYB (K562 HiBiT knock-in); assay type: cell-based, human; conditions: HiBiT knock-in K562 cells, 24 hours, top dose 10 μM
Procedure: as §8, §9, §10, §11, §12

K562 cells = assay: Cell Titer Glo 2.0 cell viability (toxicity) assay, K562; conditions: 500 cells/well, 72 hours
Procedure: Compounds described herein were screened for toxicity in K562 (human chronic myelogenous leukemia) and SH-SY5Y (human neuroblastoma) cells using a Cell Titer Glo 2.0 assay.
Cells were plated at 500 cells/well (K562 cells) in 45 μL of IMDM supplemented with 10% FBS in a 384-well opaque plate. Wells containing only medium were used as a blank control. Test compounds (e.g., compounds of Formula (I) or (II)) were first serially diluted in DMSO then diluted 1:100 with EIDM+10% FBS. The final concentration of DMSO was 0.1% in each well. The cells were incubated for 72 hours at 37° C. and 5% CO2 before assaying with Cell Titer Glo 2.0 reagent.

SMN2 mRNA = assay: RT-qPCR splicing assay, SMN2 mRNA; assay type: cell-based, human; conditions: Homo sapiens, canonical junction qPCR panel, Table 4; read-out: SMN2 IC50 (decrease in CJ mRNA levels)
Procedure: as §1, §2, §3, §4, §5, §6, §7

[1] = MYB canonical junction mRNA, RT-qPCR, read-out: MYB CJ (decrease in CJ mRNA levels, IC50)
[2] = canonical junction qPCR panel, Table 4, read-out: MYB IC50 (decrease in CJ mRNA levels)
[3] = HTT canonical junction mRNA, RT-qPCR, read-out: HTT CJ (decrease in CJ mRNA levels, IC50)
[4] = canonical junction qPCR panel, Table 4, read-out: HTT IC50 (decrease in CJ mRNA levels)

SMILES | IC50 (MYB mRNA; [1]) [nM] | IC50 (MYB mRNA; [2]) [nM] | IC50 (HTT) [nM] | IC50 (Target C) [nM] | IC50 (HTT mRNA; [3]) [nM] | IC50 (HTT mRNA; [4]) [nM] | IC50 (MYB) [nM] | IC50 (SMN2 mRNA) [nM] | AC50 (MYB mRNA; RT-qPCR) [nM] | AC50 (HTT mRNA; RT-qPCR) [nM] | Effect of Exemplary Compounds on Cell Viability, K562 (K562 cells)
Cn1cc2c(O)c(-c3cc4ccc(C5CCNCC5)nc4cn3)ccc2n1 [Compound 106] | 1000 to 10000 | 1000 to 10000 | 1000 to 10000 | 1000 to 10000 | 1000 to 10000 | 1000 to 10000 | 1000 to 10000 | 100 to 1000 | 100 to 1000 | 1000 to 10000 | B (B represents 100-1000 nM)
Cn1cc2c(O)c(-c3ncc4nc(C5CCNCC5)ccc4n3)ccc2n1 [Compound 108] | 1000 to 10000 | 1000 to 10000 | 100 to 1000 | 100 to 1000 | 1000 to 10000 | 1000 to 10000 | 100 to 1000 | < 100 | 1000 to 10000 | 1000 to 10000 | B (B represents 100-1000 nM)
CN1CCN(c2ccc3nc(-c4cc5cn(C)nc5cc4O)ccc3n2)CC1 [Compound 116] | 100 to 1000 | 100 to 1000 | 1000 to 10000 | 1000 to 10000 | 1000 to 10000 | 1000 to 10000 | 1000 to 10000 | < 100 | 1000 to 10000 | 1000 to 10000 | C (C represents 1000-9999 nM)
CC1CN(c2ccc3nc(-c4cc5cn(C)nc5cc4O)ccc3n2)CCN1 (stereo not drawn) [Compound 117] | 100 to 1000 | 100 to 1000 | 100 to 1000 | 1000 to 10000 | 1000 to 10000 | 1000 to 10000 | 100 to 1000 | < 100 | 100 to 1000 | 1000 to 10000 | B (B represents 100-1000 nM)
CC1CN(c2ccc3nc(-c4cc5cn(C)nc5cc4O)ccc3n2)CCN1C (stereo not drawn) [Compound 118] | 100 to 1000 | 100 to 1000 | 1000 to 10000 | > 10000 | 1000 to 10000 | 1000 to 10000 | 100 to 1000 | < 100 | 1000 to 10000 | 1000 to 10000 | C (C represents 1000-9999 nM)
CCC1CN(c2ccc3nc(-c4cc5cn(C)nc5cc4O)ccc3n2)CCN1 (stereo not drawn) [Compound 119] | 100 to 1000 | 100 to 1000 | 100 to 1000 | 100 to 1000 | 100 to 1000 | 100 to 1000 | 100 to 1000 | < 100 | 100 to 1000 | 1000 to 10000 | B (B represents 100-1000 nM)

Continued, in another order:

IC50 (MYB mRNA; [1]) [nM] | IC50 (MYB mRNA; [2]) [nM] | IC50 (HTT) [nM] | IC50 (Target C) [nM] | IC50 (HTT mRNA; [3]) [nM] | IC50 (HTT mRNA; [4]) [nM] | IC50 (MYB) [nM] | IC50 (SMN2 mRNA) [nM] | SMILES | AC50 (MYB mRNA; RT-qPCR) [nM] | AC50 (HTT mRNA; RT-qPCR) [nM] | Effect of Exemplary Compounds on Cell Viability, K562 (K562 cells)
< 100 | < 100 | < 100 | < 100 | < 100 | < 100 | < 100 | < 100 | Cn1cc2cc(-c3ccc4nc(C5CCNCC5)ccc4n3)c(O)cc2n1 [Compound 100] | 1000 to 10000 | 100 to 1000 | B (B represents 100-1000 nM)
< 100 | < 100 | < 100 | < 100 | < 100 | < 100 | < 100 | < 100 | Cc1c(O)c(-c2ccc3nc(C4CCNCC4)ccc3n2)cc2cn(C)nc12 [Compound 101] | < 100 | < 100 | A (A represents <100 nM)
< 100 | < 100 | < 100 | < 100 | < 100 | < 100 | < 100 | < 100 | Cn1cc2cc(-c3ccc4nc(C5CCNCC5)ccc4n3)c(O)c(F)c2n1 [Compound 102] | < 100 | < 100 | A (A represents <100 nM)
100 to 1000 | 100 to 1000 | 100 to 1000 | 100 to 1000 | 100 to 1000 | 100 to 1000 | 100 to 1000 | < 100 | Cn1cc2cc(-c3ncc4nc(C5CCNCC5)ccc4n3)c(O)cc2n1 [Compound 107] | 100 to 1000 | 100 to 1000 | B (B represents 100-1000 nM)
< 100 | < 100 | < 100 | < 100 | < 100 | < 100 | < 100 | < 100 | Cn1cc2cc(-c3ccc4cc(C5CCNCC5)ccc4n3)c(O)cc2n1 [Compound 109] | 100 to 1000 | 100 to 1000 | B (B represents 100-1000 nM)
100 to 1000 | 100 to 1000 | 100 to 1000 | 100 to 1000 | 1000 to 10000 | 1000 to 10000 | < 100 | < 100 | Cn1cc2cc(-c3ccc4c(F)c(C5CCNCC5)ccc4n3)c(O)cc2n1 [Compound 115] | 100 to 1000 | 1000 to 10000 | B (B represents 100-1000 nM)
